From patent US20130131043A1, “PYRAZOLE COMPOUNDS AS JAK INHIBITORS” (priority 2010, published 2013)

Experiments:
JAK2 = target: T1, JAK2 (Homo sapiens, UniProt O60674); assay: Kinobeads assay, JAK2 (competition binding in cell lysate, dot blot detection); conditions: mixed Molt4/Ramos lysate
T1 construct: endogenous in cells; host or cells: Molt4 (ATCC CRL-1582) and Ramos (ATCC CRL-1596) cell lysate; mixed Molt4/Ramos lysate 1:2
Method: (§1) The compounds of the present invention as described in the previous examples were tested in a Kinobeads™ assay as described for ZAP-70 (WO-A 2007/137867). Briefly, test compounds (at various concentrations) and the affinity matrix with the immobilized aminopyrido-pyrimidine ligand 24 were added to cell lysate aliquots and allowed to bind to the proteins in the lysate sample. After the incubation time the beads with captured proteins were separated from the lysate. Bound proteins were then eluted and the presence of JAK2 and JAK3 was detected and quantified using specific antibodies in a dot blot procedure and the Odyssey infrared detection system. Dose response curves for individual kinases were generated and IC50 values calculated. Kinobeads™ assays for ZAP-70 (WO-A 2007/137867) and for kinase selectivity profiling (WO-A 2006/134056) have been previously described.
(§2) 5×DP buffer: 250 mM Tris-HCl pH 7.4, 25% Glycerol, 7.5 mM MgCl2, 750 mM NaCl, 5 mM Na3VO4; filter the 5×DP buffer through a 0.22 μm filter and store in aliquots at −80° C. The 5×DP buffer is diluted with H2O to 1×DP buffer containing 1 mM DTT and 25 mM NaF.
(§3) Stock solutions of test compounds were prepared in DMSO. In a 96 well plate 30 μL solution of diluted test compounds at 5 mM in DMSO were prepared. Starting with this solution a 1:3 dilution series (9 steps) was prepared. For control experiments (no test compound) a buffer containing 2% DMSO was used.
(§4) Molt4 cells (ATCC catalogue number CRL-1582) and Ramos cells (ATCC catalogue number CRL-1596) were grown in 1 L Spinner flasks (Integra Biosciences, #182101) in suspension in RPMI 1640 medium (Invitrogen, #21875-034) supplemented with 10% Fetal Bovine Serum (Invitrogen) at a density between 0.15×10^6 and 1.2×10^6 cells/mL. Cells were harvested by centrifugation, washed once with 1×PBS buffer (Invitrogen, #14190-094) and cell pellets were frozen in liquid nitrogen and subsequently stored at −80° C. Cells were homogenized in a Potter S homogenizer in lysis buffer: 50 mM Tris-HCl, 0.8% NP40, 5% glycerol, 150 mM NaCl, 1.5 mM MgCl2, 25 mM NaF, 1 mM sodium vanadate, 1 mM DTT, pH 7.5. One complete EDTA-free tablet (protease inhibitor cocktail, Roche Diagnostics, 1873580) per 25 mL buffer was added. The material was dounced 10 times using a mechanized POTTER S, transferred to 50 mL falcon tubes, incubated for 30 minutes on ice and spun down for 10 minutes at 20,000 g at 4° C. (10,000 rpm in Sorvall SLA600, precooled). The supernatant was transferred to an ultracentrifuge (UZ)-polycarbonate tube (Beckmann, 355654) and spun for 1 hour at 100.000 g at 4° C. (33.500 rpm in Ti50.2, precooled). The supernatant was transferred again to a fresh 50 mL falcon tube, the protein concentration was determined by a Bradford assay (BioRad) and samples containing 50 mg of protein per aliquot were prepared. The samples were immediately used for experiments or frozen in liquid nitrogen and stored frozen at −80° C.
(§5) Cell lysate (approximately 50 mg protein per plate) was thawed in a water bath at room temperature and then stored on ice. To the thawed cell lysate 1×DP 0.8% NP40 buffer containing protease inhibitors (1 tablet for 25 mL buffer; EDTA-free protease inhibitor cocktail; Roche Diagnostics 1873580) was added in order to reach a final protein concentration of 10 mg/mL total protein. The diluted cell lysate was stored on ice. Mixed Molt4/Ramos lysate was prepared by combining one volume of Molt4 lysate and two volumes of Ramos lysate (ratio 1:2).
(§6) Plates were sealed and incubated for 3 hours in a cold room on a plate shaker (Heidolph tiramax 1000) at 750 rpm. Afterwards the plate was washed 3 times with 230 μL washing buffer (1×DP 0.4% NP40). The filter plate was placed on top of a collection plate (Greiner bio-one, PP-microplate 96 well V-shape, 65120) and the beads were then eluted with 20 μL of sample buffer (100 mM Tris, pH 7.4, 4% SDS, 0.00025% bromophenol blue, 20% glycerol, 50 mM DTT). […]

JAK3 = target: T2, JAK3 (Homo sapiens, UniProt P52333); assay: Kinobeads assay, JAK3 (competition binding in cell lysate, dot blot detection); conditions: mixed Molt4/Ramos lysate
T2 construct: endogenous in cells; host or cells: Molt4 (ATCC CRL-1582) and Ramos (ATCC CRL-1596) cell lysate; mixed Molt4/Ramos lysate 1:2
T2 sequence (P52333 1-1124): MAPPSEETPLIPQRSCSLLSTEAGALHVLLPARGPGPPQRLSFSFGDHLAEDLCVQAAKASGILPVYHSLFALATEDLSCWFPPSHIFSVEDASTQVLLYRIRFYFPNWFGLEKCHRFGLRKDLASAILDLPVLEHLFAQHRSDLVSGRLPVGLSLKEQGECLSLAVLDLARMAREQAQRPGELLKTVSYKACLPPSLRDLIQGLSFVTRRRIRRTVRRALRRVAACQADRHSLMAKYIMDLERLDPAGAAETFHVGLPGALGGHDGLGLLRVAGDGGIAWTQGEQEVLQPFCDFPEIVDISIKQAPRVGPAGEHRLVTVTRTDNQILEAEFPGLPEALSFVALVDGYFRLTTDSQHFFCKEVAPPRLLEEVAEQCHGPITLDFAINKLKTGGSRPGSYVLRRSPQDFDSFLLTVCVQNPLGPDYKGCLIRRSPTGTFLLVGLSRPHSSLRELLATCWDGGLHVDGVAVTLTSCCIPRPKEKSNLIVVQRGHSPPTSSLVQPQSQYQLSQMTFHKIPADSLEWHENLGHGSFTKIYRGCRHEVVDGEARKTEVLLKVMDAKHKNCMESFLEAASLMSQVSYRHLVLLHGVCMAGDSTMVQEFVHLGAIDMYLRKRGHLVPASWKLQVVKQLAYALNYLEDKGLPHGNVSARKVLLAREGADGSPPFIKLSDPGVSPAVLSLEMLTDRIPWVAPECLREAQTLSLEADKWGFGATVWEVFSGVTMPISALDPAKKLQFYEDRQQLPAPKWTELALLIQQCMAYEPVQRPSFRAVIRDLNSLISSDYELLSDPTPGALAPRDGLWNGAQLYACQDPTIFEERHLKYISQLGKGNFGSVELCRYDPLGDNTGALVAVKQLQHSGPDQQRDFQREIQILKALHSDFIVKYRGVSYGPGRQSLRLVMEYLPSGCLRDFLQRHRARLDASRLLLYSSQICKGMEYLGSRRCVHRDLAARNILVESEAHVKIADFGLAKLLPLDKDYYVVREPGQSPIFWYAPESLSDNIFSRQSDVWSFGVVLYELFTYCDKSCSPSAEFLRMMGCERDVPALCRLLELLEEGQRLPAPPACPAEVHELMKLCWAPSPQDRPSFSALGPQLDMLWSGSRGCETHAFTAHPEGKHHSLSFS
Method: as §1, §2, §3, §4, §5, §6

T1 sequence (O60674 whole entry): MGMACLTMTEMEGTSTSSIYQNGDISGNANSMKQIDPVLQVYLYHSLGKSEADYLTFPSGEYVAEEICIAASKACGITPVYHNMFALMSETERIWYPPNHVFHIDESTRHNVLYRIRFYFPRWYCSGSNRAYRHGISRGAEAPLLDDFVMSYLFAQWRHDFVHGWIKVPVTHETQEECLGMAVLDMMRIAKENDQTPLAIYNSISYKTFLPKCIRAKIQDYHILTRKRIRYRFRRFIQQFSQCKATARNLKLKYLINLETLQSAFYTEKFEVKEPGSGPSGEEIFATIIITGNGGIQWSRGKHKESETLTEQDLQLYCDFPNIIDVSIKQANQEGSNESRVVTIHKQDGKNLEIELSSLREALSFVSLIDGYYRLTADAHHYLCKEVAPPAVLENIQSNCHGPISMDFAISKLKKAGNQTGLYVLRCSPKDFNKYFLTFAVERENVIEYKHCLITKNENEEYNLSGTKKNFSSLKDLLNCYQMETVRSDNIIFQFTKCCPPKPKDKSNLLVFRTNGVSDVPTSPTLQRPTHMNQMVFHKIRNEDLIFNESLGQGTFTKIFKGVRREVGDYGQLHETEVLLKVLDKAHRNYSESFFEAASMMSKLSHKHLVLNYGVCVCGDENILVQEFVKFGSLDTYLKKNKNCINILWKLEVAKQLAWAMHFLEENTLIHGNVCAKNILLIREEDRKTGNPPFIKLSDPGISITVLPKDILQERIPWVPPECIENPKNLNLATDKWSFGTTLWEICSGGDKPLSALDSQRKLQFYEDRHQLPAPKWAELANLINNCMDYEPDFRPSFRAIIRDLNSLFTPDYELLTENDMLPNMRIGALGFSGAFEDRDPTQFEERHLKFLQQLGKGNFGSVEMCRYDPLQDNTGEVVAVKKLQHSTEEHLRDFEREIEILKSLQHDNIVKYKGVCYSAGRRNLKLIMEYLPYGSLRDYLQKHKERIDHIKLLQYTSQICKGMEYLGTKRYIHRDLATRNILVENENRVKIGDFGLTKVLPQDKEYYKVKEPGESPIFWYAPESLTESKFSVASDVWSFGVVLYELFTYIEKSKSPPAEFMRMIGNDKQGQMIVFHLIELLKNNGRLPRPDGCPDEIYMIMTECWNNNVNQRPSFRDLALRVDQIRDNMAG

SMILES | IC50 (JAK2) [nM] | IC50 (JAK3) [nM]
C[C@H]1CCCC[C@H]1n1ncc2cnc(Nc3cnn(C)c3)nc21 (racemic) [Example 11, Rac-cis-N-(1-methyl-1H-pyrazol-4-yl)-1-(2-methylcyclohexyl)-1H-pyrazolo[3,4-d]pyrimidin-6-amine] | 1000 to 10000 | 100 to 1000
Cn1cc(Nc2ncc3cnn(CC4CCCN(CCC#N)C4)c3n2)cn1 (stereo not drawn) [Example 41, 3-(3-((6-((1-methyl-1H-pyrazol-4-yl)amino)-1H-pyrazolo[3,4-d]pyrimidin-1-yl)methyl)piperidin-1-yl)propanenitrile] | 1000 to 10000 | < 100
C[C@H]1CCCC[C@@H]1n1ncc2cnc(Nc3cnn(CCO)c3)nc21 (racemic) [Example 50, Rac-trans-2-(4-((1-(2-methylcyclohexyl)-1H-pyrazolo[3,4-d]pyrimidin-6-yl)amino)-1H-pyrazol-1-yl)ethanol] | 1000 to 10000 | < 100
CC(C1CCCCC1)n1ncc2cnc(Nc3cnn(C)c3)nc21 (stereo not drawn) [Example 17, 1-(1-Cyclohexylethyl)-N-(1-methyl-M-pyrazol-4-yl)-1H-pyrazolo[3,4-d]pyrimidin-6-amine] | > 10000 | 100 to 1000
CC(C)NC(=O)CN1CCC(Cn2ncc3cnc(Nc4cnn(C)c4)nc32)C1 (stereo not drawn) [Example 68, N-isopropyl-2-(3-((6-((1-methyl-1H-pyrazol-4-yl)amino)-1H-pyrazolo[3,4-d]pyrimidin-1-yl)methyl)pyrrolidin-1-yl)acetamide] | > 10000 | 100 to 1000
Cn1cc(Nc2ncc3cnn(CC4CCCN(CC(F)F)C4)c3n2)cn1 (stereo not drawn) [Example 67, 1-((1-(2,2-difluoroethyl)piperidin-3-yl)methyl)-N-(1-methyl-1H-pyrazol-4-yl)-1H-pyrazolo[3,4-d]pyrimidin-6-amine] | 1000 to 10000 | < 100
Cn1cc(Nc2ncc3cnn(C4CCCCC4)c3n2)cn1 [Example 8, 1-cyclohexyl-N-(1-methyl-1H-pyrazol-4-yl)-1H-pyrazolo[3,4-d]pyrimidin-6-amine] | > 10000 | 100 to 1000
Cn1cc(Nc2ncc3cnn(CC4CN(CCC#N)C4)c3n2)cn1 [Example 49, 3-(3-((6-((1-methyl-1H-pyrazol-4-yl)amino)-1H-pyrazolo[3,4-d]pyrimidin-1-yl)methyl)azetidin-1-yl)propanenitrile] | > 10000 | 100 to 1000
Cn1cc(Nc2ncc3cnn(C4CCCNC4)c3n2)cn1 (stereo not drawn) [Example 10, N-(1-methyl-1H-pyrazol-4-yl)-1-(piperidin-3-yl)-1H-pyrazolo[3,4-d]pyrimidin-6-amine] | > 10000 | 1000 to 10000
N#CCN1CCCC(Cn2ncc3cnc(Nc4cnn(CC(F)F)c4)nc32)C1 (stereo not drawn) [Example 60, 2-(3-((6-((1-(2,2-difluoroethyl)-1H-pyrazol-4-yl)amino)-1H-pyrazolo[3,4-d]pyrimidin-1-yl)methyl)piperidin-1-yl)acetonitrile] | 1000 to 10000 | 100 to 1000
Cn1cc(Nc2ncc3cnn(CC4CCCN(C(=O)NC5CC5)C4)c3n2)cn1 (stereo not drawn) [Example 52, N-cyclopropyl-3-((6-((1-methyl-1H-pyrazol-4-yl)amino)-1H-pyrazolo[3,4-d]pyrimidin-1-yl)methyl)piperidine-1-carboxamide] | 1000 to 10000 | < 100
CC(C)NC(=O)CN1CCCC(Cn2ncc3cnc(Nc4cnn(C)c4)nc32)C1 (stereo not drawn) [Example 63, N-isopropyl-2-(3-((6-((1-methyl-1H-pyrazol-4-yl)amino)-1H-pyrazolo[3,4-d]pyrimidin-1-yl)methyl)piperidin-1-yl)acetamide] | > 10000 | 100 to 1000
Cn1cc(Nc2ncc3cnn(CC4CCCN(C(=O)CCS(C)(=O)=O)C4)c3n2)cn1 (stereo not drawn) [Example 23, 1-(3-((6-((1-methyl-1H-pyrazol-4-yl)amino)-1H-pyrazolo[3,4-d]pyrimidin-1-yl)methyl)piperidin-1-yl)-3-(methylsulfonyl)propan-1-one] | 1000 to 10000 | < 100
Cn1cc(Nc2ncc3cnn(CC4CCN(S(C)(=O)=O)C4)c3n2)cn1 (stereo not drawn) [Example 48, N-(1-methyl-1H-pyrazol-4-yl)-1-((1-(methylsulfonyl)pyrrolidin-3-yl)methyl)-1H-pyrazolo[3,4-d]pyrimidin-6-amine] | > 10000 | 100 to 1000
CC(C)S(=O)(=O)N1CCCC(Cn2ncc3cnc(Nc4cnn(C)c4)nc32)C1 (stereo not drawn) [Example 32, 1-((1-(isopropylsulfonyl)piperidin-3-yl)methyl)-N-(1-methyl-1H-pyrazol-4-yl)-1H-pyrazolo[3,4-d]pyrimidin-6-amine] | 1000 to 10000 | < 100
COCCN1CCCC(Cn2ncc3cnc(Nc4cnn(C)c4)nc32)C1 (stereo not drawn) [Example 35, 1-((1-(2-methoxyethyl)piperidin-3-yl)methyl)-N-(1-methyl-1H-pyrazol-4-yl)-1H-pyrazolo[3,4-d]pyrimidin-6-amine] | > 10000 | < 100
Cn1cc(Nc2ncc3cnn(CC4CCCN(C(=O)C(F)(F)F)C4)c3n2)cn1 (stereo not drawn) [Example 47, 2,2,2-trifluoro-1-(3-((6-((1-methyl-1H-pyrazol-4-yl)amino)-1H-pyrazolo[3,4-d]pyrimidin-1-yl)methyl)piperidin-1-yl)ethanone] | 1000 to 10000 | 100 to 1000
CN(C)C(=O)N1CCCC(Cn2ncc3cnc(Nc4cnn(C)c4)nc32)C1 (stereo not drawn) [Example 65, N,N-dimethyl-3-((6-((1-methyl-1H-pyrazol-4-yl)amino)-1H-pyrazolo[3,4-d]pyrimidin-1-yl)methyl)piperidine-1-carboxamide] | 1000 to 10000 | < 100
